The source of these data is patent US20040110775A1, “Cyclin dependent kinase inhibiting purine derivatives” (priority 2001, published 2004).

For experiment [1], the target named is p34 cdc2(CDK1)/cyclinB. As to the kind of experiment: CDK assay: histone H1 phosphorylation with [32P]ATP by cdc2/cyclinB kinase. The settings on record: read-out: IC50 ± SD CDK1. The experiment is classed as biochemical, starfish (Marthasterias glacialis). The procedure:
Assays are available for testing the inhibitory activity of the compounds of interest against a range of CDK/cyclin complexes, including CDK1/cyclin A, CDK1/cyclin B, CDK1/cyclin F, CDK2/cyclin A, CDK2/cyclin E, CDK4/cyclin D, CDK5/35 and CDK6/cyclin D3. […]
(§1) By way of example, however, a typical protocol is summarised below.
Buffer C (containing 6 mM β-glycerophosphate, 30 mM nitrophenyl phosphate, 25 mM MOPS pH 7.0, 5 mM EGTA, 15 mM MgCl2, […] and 0.1 mM sodium orthovanadate) is made up as follows:
Affinity purified p34 cdc2(CDK1)/cyclinB from M-phase starfish (Marthasterias glacialis) in 20% glycerol is stored at −80° C. in chest freezer
Histone H1 (type III-S (Sigma) 4° C.) 5 mg/ml in buffer C.
[^32P]ATP 75 mM: Make up using (multiples of) the following proportions:
DMSO cannot exceed 1% in the assay mixture. Inhibitors are added at 1/10 final assay volume and 10× final strength. DMSO stocks must therefore be diluted to 10× final desired concentration in ≦10% DMSO, ≧90% buffer C.
All reagents (except DMSO stocks) should be kept on ice until assay initiated.
Start reaction in each tube at 30 second intervals b)y adding
5 ml [^32P]ATP vortexing and placing in rack in waterbath at 30° C.
Terminate reaction after 10 min at 30 second intervals in tubes in same order by removing […] reaction mix and spotting onto appropriately labelled filter, allowing to dry for 20-30 seconds and transferring to stirring 1% phosphoric acid.
Blank incubation is performed as above but without histone (add […] buffer C instead) Washing blank is […] ATP added directly to filter.
Wash filters 5-6 times 5 min each
Dry the filters on paper towel
Count in mini scintillation vials with 5 ml scintillant.
NB. The assay can be simplified by making up stock reaction mix as follows:
(1 part cdc2/cyclinB, 16 parts buffer C, 5 parts histone H1)×Number of assay tubes+1 and add […] to each assay tube containing […] buffer C±inhibitor.
It is still necessary, however, to make up assay blank (i.e. without histone) separately.

For experiment [2], the target named is CDK2 (Homo sapiens, UniProt P24941). As to the kind of experiment: Inhibition of CDK2 (CDK inhibition assay). The conditions noted are these: read-out: IC50 ± SD CDK2. The experiment is classed as biochemical.
Description: Assays are available for testing the inhibitory activity of the compounds of interest against a range of CDK/cyclin complexes, including CDK1/cyclin A, CDK1/cyclin B, CDK1/cyclin F, CDK2/cyclin A, CDK2/cyclin E, CDK4/cyclin D, CDK5/35 and CDK6/cyclin D3.
Apart from reference compounds, the compounds listed are accompanied by an NU reference or identification code number.
as §1

Where “and” joins values, the source holds several entries; their conditions need not be identical. Equal entries are not always repeated. Where two headings read alike, the source gives them in different places. Where only a bound is given, the exact number is not on record here.

By IC50 is commonly meant the concentration that gives 50% inhibition. For `COc1cc(Nc2nc(OCC3CCCCC3)c3nc[nH]c3n2)ccc1S(N)(=O)=O` [NU6161, 4-[6-Cyclohexylmethoxy-9H-purin-2-ylamino]-benzene(3′-methoxy)sulfonamide], the IC50 in experiment [1] (values in nM) came out at 103 ± 4 nM.

`CC1CCCCC1COc1nc(Nc2ccc(S(N)(=O)=O)cc2)nc2[nH]cnc12` (stereo not shown) [NU6158, 4-[6-(2-Methyl-cyclohexylmethoxy)-9H-purin-2-ylamino]benzenesulfonamide]: the figures for the IC50 in experiment [1] (values in nM) and in experiment [2] (values in nM) were 6 ± 1 nM and 4 ± 0.3 nM, respectively.

Turning to `O=S(=O)(Nc1ccccc1)c1ccc(Nc2nc(OCC3CCCCC3)c3nc[nH]c3n2)cc1` [NU6152, 4-(6-Cyclohexylmethoxy-9H-purin-2-ylamino)-N-phenyl-benzenesulfonamide], the IC50 in experiment [1] (values given in μM) was 400 ± 100 nM; in experiment [2] (values given in μM), 200 ± 20 nM.

`COCCNS(=O)(=O)c1ccc(Nc2nc(OCC3CCCCC3)c3nc[nH]c3n2)cc1` [NU6135, 4-(6-Cyclohexylmethoxy-9H-purin-2-ylamino)-N-(2-methoxyethyl)benzenesulfonamide]: the IC50 in experiment [1] (values in nM) is 18 ± 4 nM; in experiment [2] (values in nM), 6 ± 1.5 nM.

Take `O=S(=O)(NCC(F)(F)F)c1ccc(Nc2nc(OCC3CCCCC3)c3nc[nH]c3n2)cc1` [NU6163, 4-(6-Cyclohexylmethoxy-9H-purin-2-ylamino)-N-(2,2,2-trifluoroethyl)-benzenesulfonamide]: the IC50 in experiment [1] (values in nM) amounted to 66 ± 5 nM; in experiment [2] (values in nM), 51 ± 16 nM.

For `CSc1ccc(Nc2nc(OCC3CCCCC3)c3nc[nH]c3n2)cc1` [NU6117, 6-Cyclohexylmethoxy-2-(4′-methylmercaptoanilino)purine], the IC50 in experiment [1] (values given in μM) and in experiment [2] (values given in μM) was > 10000 nM throughout.

Turning to `CCCNS(=O)(=O)c1ccc(Nc2nc(OCC3CCCCC3)c3nc[nH]c3n2)cc1` [NU6133, 4-(6-Cyclohexylmethoxy-9H-purin-2-ylamino)-N-propylbenzenesulfonamide], the figures for the IC50 in experiment [1] (values in nM) and in experiment [2] (values in nM) were 34 ± 4 nM and 17 ± 13 nM, respectively.

Regarding `O=C(O)c1ccc(Nc2nc(OCC3CCCCC3)c3nc[nH]c3n2)cc1` [NU6147, 4-(6-Cyclohexylmethoxypurin-2-ylamino)benzoic acid], the IC50 in experiment [1] (values given in μM) was determined as 240 nM.

For the molecule `CCN(CC)C(=O)c1ccc(Nc2nc(OCC3CCCCC3)c3nc[nH]c3n2)cc1` [NU6140, 4-(6-Cyclohexylmethoxy-9H-purin-2-ylamino)-N,N-diethylbenzamide], the IC50 in experiment [1] (values given in μM) was found to be 700 nM.

As to `CCc1cccc(Nc2nc(OCC3CCCCC3)c3nc[nH]c3n2)c1` [NU6099, 6-Cyclohexylmethoxy-2-(3′-ethylanilino)purine], the concentration for half-maximal inhibition (IC50) in experiment [1] (values given in μM) and in experiment [2] (values given in μM) was > 10000 nM in each case.

With `O=S(=O)(NCC1CCCO1)c1ccc(Nc2nc(OCC3CCCCC3)c3nc[nH]c3n2)cc1` (stereo not shown) [NU6134, 4-(6-Cyclohexylmethoxy-9H-purin-2-ylamino)-N-(tetrahydrofuran-2-ylmethyl)benzenesulfonamide], the half-inhibitory concentration (IC50) in experiment [1] (values in nM) was 7.2 nM and 7.3 nM; in experiment [2] (values in nM) it was 7 ± 3.2 nM.

Regarding `CC(C)CNS(=O)(=O)c1ccc(Nc2nc(OCC3CCCCC3)c3nc[nH]c3n2)cc1` [NU6130, 4-(6Cyclohexylmethoxy-2-ylamino)-N-isobutylbenzenesulfonamide], the figures for the IC50 in experiment [1] (values in nM) and in experiment [2] (values in nM) were 71 ± 9 nM and 69 ± 13 nM, respectively.

Turning to `O=S(=O)(NC1CC1)c1ccc(Nc2nc(OCC3CCCCC3)c3nc[nH]c3n2)cc1` [NU6131, 4-(6-Cyclohexylmethoxy-9H-purin-2-ylamino)-N-cyclopropylbenzenesulfonamide], the IC50 in experiment [1] (values in nM) was 13 ± 5 nM; in experiment [2] (values in nM), 8 ± 0.3 nM.

`Brc1cccc(Nc2nc(OCC3CCCCC3)c3nc[nH]c3n2)c1` [NU6095, 2-(3′-Bromoanilino)-6-cyclohexylmethoxypurine]: the IC50 in experiment [1] (values given in μM) was found to be 5300 ± 800 nM.

Regarding `Cc1cc(NS(=O)(=O)c2ccc(Nc3nc(OCC4CCCCC4)c4nc[nH]c4n3)cc2)nc(C)n1` [NU6160, 4-(6-Cyclohexylmethoxy-9H-purin-2-ylamino)-N-(2,6dimethylpyrimidin-4-yl)-benzenesulfonamide], the 50% inhibitory concentration (IC50) came to 28 ± 2 nM in experiment [1] (values in nM) and 33 ± 6 nM in experiment [2] (values in nM).

For `Fc1ccc(Nc2nc(OCC3CCCCC3)c3nc[nH]c3n2)cc1` [NU6116, 6-Cyclohexylmethoxy-2-(4′-fluoroanilino)purine], the IC50 in experiment [1] (values given in μM) and in experiment [2] (values given in μM) was > 10000 nM in each case.

In the case of `CNS(=O)(=O)c1ccc(Nc2nc(OCC3CCCCC3)c3nc[nH]c3n2)cc1` [NU6127, 4-(6-Cyclohexylmethoxy-2-ylamino)-N-methylbenzenesulfonamide], in experiment [1] (values in nM), the IC50 is 9 nM and 10 nM.

Regarding `O=S(=O)(Nc1cccc(Cl)c1)c1ccc(Nc2nc(OCC3CCCCC3)c3nc[nH]c3n2)cc1` [NU6132, N-(3-Chloro-phenyl)-4-(6-cyclohexylmethoxy-9H-purin-2-ylamino)benzenesulfonamide], the IC50 in experiment [2] (values given in μM) is 5700 nM.

`CNC(=O)c1ccc(Nc2nc(OCC3CCCCC3)c3nc[nH]c3n2)cc1` [NU6139, 4-(6-Cyclohexylmethoxy-9H-purin-2-ylamino)-N-methylbenzamide]: the concentration for half-maximal inhibition (IC50) in experiment [1] (values given in μM) was determined as 700 nM; in experiment [2] (values given in μM) it was 300 nM.

With `COc1ccc(Nc2nc(OCC3CCCCC3)c3nc[nH]c3n2)cc1` [NU6100, 6-Cyclohexylmethoxy-2-(4′-methoxyanilino)purine], the IC50 in experiment [1] (values given in μM) worked out at 800 ± 10 nM.

Regarding `COC(=O)c1ccc(Nc2nc(OCC3CCCCC3)c3nc[nH]c3n2)cc1` [NU6118, Methyl 4-N-(6′-Cyclohexylmethoxypurin-2′-yl)aminobenzoate], the IC50 in experiment [1] (values given in μM) and in experiment [2] (values given in μM) was ~10000 nM in each case.

As to `NS(=O)(=O)c1ccc(Nc2nc(OCC3CC=CCC3)c3nc[nH]c3n2)cc1` (stereo not shown) [NU6162, 4-[6-(Cyclohex-3-enylmethoxy)-9H-purin-2ylamino]-benzenesulfonamide], the IC50 in experiment [1] (values in nM) is 21 ± 4 nM; in experiment [2] (values in nM) it was 10 ± 1 nM.

On to `NC(=O)Cc1ccc(Nc2nc(OCC3CCCCC3)c3nc[nH]c3n2)cc1` [NU6164, 2-[4-(6-Cyclohexylmethoxy-9H-purin-2-ylamino)-phenyl]acetamide], for which the results for the half-maximal inhibitory concentration (IC50) in experiment [1] (values in nM) and in experiment [2] (values in nM) were 136 ± 22 nM and 132 ± 20 nM, respectively.

In the case of `CN(C)C(=O)c1ccc(Nc2nc(OCC3CCCCC3)c3nc[nH]c3n2)cc1` [NU6136, 4-(6-Cyclohexylmethoxy-9H-purin-2-ylamino)-N,N-dimethylbenzamide], the IC50 in experiment [1] (values given in μM) came out at 600 nM; in experiment [2] (values given in μM), 200 nM.

Regarding `OCc1cccc(Nc2nc(OCC3CCCCC3)c3nc[nH]c3n2)c1` [NU6151, [3-(6-Cyclohexylmethoxy-9H-purin-2-ylamino)phenyl]methanol], the half-inhibitory concentration (IC50) in experiment [1] (values given in μM) was 300 ± 10 nM.

As for `Fc1cccc(Nc2nc(OCC3CCCCC3)c3nc[nH]c3n2)c1` [NU6098, 6-Cyclohexylmethoxy-2-(3′-fluoroanilino)purine], the IC50 in experiment [1] (values given in μM) and in experiment [2] (values given in μM) was ~10000 nM each time.

As to `O=S(=O)(NCC(O)CO)c1ccc(Nc2nc(OCC3CCCCC3)c3nc[nH]c3n2)cc1` (stereo not shown) [NU6153, 4-(6-Cyclohexylmethoxy-9H-purin-2-ylamino)-N-(2,3-dihydroxypropyl)benzenesulfonamide], the half-maximal inhibitory concentration (IC50) was determined as 7 ± 1 nM in experiment [1] (values in nM) and 5 ± 2 nM in experiment [2] (values in nM).

For `CCCNC(=O)c1ccc(Nc2nc(OCC3CCCCC3)c3nc[nH]c3n2)cc1` [NU6142, 4-(6-Cyclohexylmethoxy-9H-purin-2-ylamino)-N-propylbenzamide], the half-inhibitory concentration (IC50) is 420 nM in experiment [1] (values given in μM) and ~100 nM in experiment [2] (values in nM).

For `C[S+]([O-])c1ccc(Nc2nc(OCC3CCCCC3)c3nc[nH]c3n2)cc1` (stereo not shown) [NU6126], in experiment [1] (values given in μM), the IC50 turned out to be 200 ± 100 nM.

`Fc1ccc(Nc2nc(OCC3CCCCC3)c3nc[nH]c3n2)cc1Cl` [NU6119, 6-Cyclohexylmethoxy-2-(3′-chloro-4′-fluoroanilino)purine]: the IC50 in experiment [1] (values given in μM) and in experiment [2] (values given in μM) was ~10000 nM in each case.

Consider `CN(C)S(=O)(=O)c1ccc(Nc2nc(OCC3CCCCC3)c3nc[nH]c3n2)cc1` [NU6128, 4-(6-Cyclohexylmethoxy-2-ylamino)-N,N-dimethylbenzenesulfonamide], for which the IC50 in experiment [1] (values in nM) came out at 77 ± 5 nM.

`c1ccc(Nc2nc(OCC3CCCCC3)c3nc[nH]c3n2)cc1` [NU6094, 2-Anilino-6-cyclohexylmethoxypurine]: the 50% inhibitory concentration (IC50) in experiment [1] (values given in μM) was found to be 1600 ± 100 nM.

On to `COc1cccc(Nc2nc(OCC3CCCCC3)c3nc[nH]c3n2)c1` [NU6096, 6-Cyclohexylmethoxy-2-(3′-methoxyanilino)purine], for which, in experiment [1] (values given in μM), the half-maximal inhibitory concentration (IC50) is 2200 ± 200 nM.

Take `CSc1cccc(Nc2nc(OCC3CCCCC3)c3nc[nH]c3n2)c1` [NU6101, 6-Cyclohexylmethoxy-2-(3′-methylmercaptoanilino)purine]: the IC50 in experiment [1] (values given in μM) was 2400 ± 200 nM.
